Assay results from patent US20260207605A1, “KRAS G12D INHIBITORS AND USES THEREOF” (Abbisko Therapeutics Co., Ltd., priority 2022, published 2026).
Like-named read-outs stand apart in the source and are kept apart here.

Key:
KRAS^G12D/cRAF = KRAS^G12D/cRAF (Homo sapiens, UniProt P01116, G12D); assay: KRAS G12D/cRAF binding test (Alphalisa); conditions: His-tagged KRAS G12D with GMPPNP, GST-tagged cRAF
Protocol: The compound was dissolved in 100% DMSO at a starting concentration of 5 mM and diluted in DMSO with a 3-fold serial dilution method for a total of 8 concentration points. 1 μL of the compound or DMSO at each concentration point was added into 99 μL of the experimental buffer to obtain 10× stock solution.
(§1) The ratio for each compound concentration was calculated from the signal of the DMSO control group contained in each assay plate and the Alphalisa signal in each compound well. The compound concentration required for inhibitory concentration at 50% (IC50) was determined using a four-parameter logarithmic dose-response equation by testing the concentration of the compound and the value of the ratio. The endpoint value (IC50) of the reference compound was assessed in each experiment as a quality control measure. If the endpoint value is within three times the expected value, the experiment may be considered acceptable.

AsPC-1 = assay: Anti-proliferative 2D CTG assay, AsPC-1; type: cell-based; conditions: Homo sapiens, ASPC1, 96 h, AsPC-1 cells, 4 days incubation, read-out: AsPC-1 cell IC50
Protocol: (§2) 1.1 Day 0 Cell Culture and Plating
(§3) Cells in a logarithmic growth phase were harvested and the cells were counted by using a […]. Cell viability was tested by using a trypan blue exclusion method to ensure that cell viability was above 90%. The cell concentration was adjusted to the desired final density, and 90 μL of cell suspension was added to a 96-well plate, then the cells were incubated overnight at 37° C., 5% CO2 and 95% humidity.
(§4) 10 μL PBS was added to each well of the TO plate containing cells. The CTG reagent was thawed and the plate was equilibrated to room temperature for 30 minutes. The CTG solution of 50 µL/well was added to each well. The cells were lysed by shaking on an orbital shaker for 5 minutes. The plate was left at room temperature for 20 minutes to stabilize the luminescence signal. The TO fluorescence signal value was read.
(§5) From the 10 mM stock solution, with a ratio of 1:5, 9-point serial dilutions were performed. The 10× medium containing the compound was transferred into corresponding wells of the 96 wells. The final maximum compound concentration was […] and the final DMSO concentration was 0.1%. The 96-well plate was placed in a 37° C. incubator and incubated for 4 days.
(§6) 50 μL/well of detection reagent (CTG) was added to the cells, and the signal was read in an Envision machine.
as §1, with “The percent inhibition (%) at” for “The ratio for”, “signal in” for “signal of”, “the HPE and ZPE” for “the DMSO”, “control wells and the fluorescence signal in the individual compound wells included” for “control group contained”, “assay plate. […]” for “assay plate and the Alphalisa signal in each compound well.”, “the inhibition percentage value.” for “the value of the ratio.”

AGS = assay: Anti-proliferative 2D CTG assay, AGS; type: cell-based; conditions: AGS cells, 4 days incubation, read-out: AGS cell IC50
Protocol: as §2, §3, §4, §5, §6
as §1, with “The percent inhibition (%) at” for “The ratio for”, “signal in” for “signal of”, “the HPE and ZPE” for “the DMSO”, “control wells and the fluorescence signal in the individual compound wells included” for “control group contained”, “assay plate. […]” for “assay plate and the Alphalisa signal in each compound well.”, “the inhibition percentage value.” for “the value of the ratio.”

HPAC = assay: Anti-proliferative 2D CTG assay, HPAC; type: cell-based; conditions: Homo sapiens, 96 h, HPAC cells, 4 days incubation, read-out: HPAC cell IC50
Protocol: as §2, §3, §4, §5, §6
as §1, with “The percent inhibition (%) at” for “The ratio for”, “signal in” for “signal of”, “the HPE and ZPE” for “the DMSO”, “control wells and the fluorescence signal in the individual compound wells included” for “control group contained”, “assay plate. […]” for “assay plate and the Alphalisa signal in each compound well.”, “the inhibition percentage value.” for “the value of the ratio.”

LS513 = assay: Anti-proliferative 2D CTG assay, LS513; type: cell-based; conditions: Homo sapiens, LS-513, 96 h, LS513 cells, 4 days incubation, read-out: LS513 cell IC50
Protocol: as §2, §3, §4, §5, §6
as §1, with “The percent inhibition (%) at” for “The ratio for”, “signal in” for “signal of”, “the HPE and ZPE” for “the DMSO”, “control wells and the fluorescence signal in the individual compound wells included” for “control group contained”, “assay plate. […]” for “assay plate and the Alphalisa signal in each compound well.”, “the inhibition percentage value.” for “the value of the ratio.”

[1] = Pharmacokinetic experiment in mice (single PO or IV administration); conditions: male, ICR, mouse, plasma
Excerpt: The purpose of this trial is to study the pharmacokinetic behavior of some compounds of the present invention, and the administration method is: single oral administration (PO) or intravenous administration (IV) to ICR mice.
ICR mice male N=9 original source: Shanghai Sippr-Bk Lab Animal Co., Ltd.
The compounds were weighed and dissolved in the corresponding solution (0.5% CMC+1% tween water solution or 10% PG+10% Solutol®+80% pH3 citrate buffer). The mixture was then shaken well and sonicated to prepare a 1 mg/mL stock solution. Nine mice were orally administered at a dose of 10 mg/kg or intravenously administered at a dose of 2 mg/kg after an overnight fast.
About 90 μL of blood was collected via the submandibular vein per time point, heparin sodium anticoagulant was added, the sample was placed on ice after collection, and plasma was centrifuged within 1 hour (centrifugation conditions: 8,000 rpm, 6 minutes, 2-8° C.). The blood collection timepoints were 0, 0.25, 0.5, 1, 2, 4, 6, 8 and 24 h. The samples were stored in a −20° C. refrigerator.
The plasma sample was 40 μL, 160 μL of ice-cold acetonitrile containing internal standard was added, vortexed for 3 minutes, and centrifuged at 11,000 rpm for 5 minutes. 100 μL of the supernatant was taken and added to 100 μL of water, 5 μL of the sample was taken and injected into LC/MS/MS for analysis.

Chain of KRAS^G12D/cRAF (P01116 1-188 isoform P01116-2 G12D): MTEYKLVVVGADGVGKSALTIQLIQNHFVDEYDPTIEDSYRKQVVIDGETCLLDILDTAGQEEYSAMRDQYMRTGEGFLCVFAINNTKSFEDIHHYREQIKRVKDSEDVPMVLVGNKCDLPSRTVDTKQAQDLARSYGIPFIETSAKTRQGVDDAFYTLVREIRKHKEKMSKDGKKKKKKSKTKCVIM

C#Cc1c(F)ccc2cc(O)cc(-c3ncc4c(N5C[C@@H]6CC[C@](CC)(C5)N6)nc(OC[C@@]56CCCN5CC(=C)C6)nc4c3F)c12 [Example 20, 4-(4-((1R,5S)-1-ethyl-3,8-diazabicyclo[3.2.1]octan-3-yl)-8-fluoro-2-(((S)-2-methylenetetrahydro-1H-pyrrolizin-7a(5H)-yl)methoxy)pyrido[4,3-d]pyrimidin-7-yl)-5-ethynyl-6-fluoronaphthalen-2-ol]
IC50 (KRAS^G12D/cRAF): 3 nM
IC50 (AsPC-1): 17.2 nM
IC50 (AGS; Homo sapiens, AGS, 96 h): 3.1 nM

C#Cc1c(F)ccc2cc(O)cc(-c3ncc4c(N5C[C@@H]6CC[C@](COC)(C5)N6)nc(OC[C@@]56CCCN5CC(=C)C6)nc4c3F)c12 [Example 22, 5-ethynyl-6-fluoro-4-(8-fluoro-4-((1R,5S)-1-(methoxymethyl)-3,8-diazabicyclo[3.2.1]octan-3-yl)-2-(((S)-2-methylenetetrahydro-1H-pyrrolizin-7a(5H)-yl)methoxy)pyrido[4,3-d]pyrimidin-7-yl)naphthalen-2-ol]
IC50 (KRAS^G12D/cRAF): 2.9 nM
IC50 (AsPC-1): 14.3 nM
IC50 (AGS; Homo sapiens, AGS, 96 h): 21.7 nM

C#Cc1c(F)ccc2cc(O)cc(-c3ncc4c(N5C[C@@H]6CC[C@](C7CC7)(C5)N6)nc(OC[C@@]56CCCN5CC(=C)C6)nc4c3F)c12 [Example 29, 4-(4-((1S,5S)-1-cyclopropyl-3,8-diazabicyclo[3.2.1]octan-3-yl)-8-fluoro-2-(((S)-2-methylenetetrahydro-1H-pyrrolizin-7a(5H)-yl)methoxy)pyrido[4,3-d]pyrimidin-7-yl)-5-ethynyl-6-fluoronaphthalen-2-ol]
IC50 (KRAS^G12D/cRAF): 25 nM
IC50 (AsPC-1): 102 nM
IC50 (AGS; Homo sapiens, AGS, 96 h): 21 nM

C#Cc1c(F)ccc2cc(O)cc(-c3ncc4c(N5C[C@@H]6CC[C@](C7CC7)(C5)N6)nc(OC[C@@]56CCCN5CC(=C(F)F)C6)nc4c3F)c12 [Example 45, 4-(4-((1S,5S)-1-cyclopropyl-3,8-diazabicyclo[3.2.1]octan-3-yl)-2-(((S)-2-(difluoromethylene)tetrahydro-1H-pyrrolizin-7a (5H)-yl)methoxy)-8-fluoropyrido [4,3-d]pyrimidin-7-yl)-5-ethynyl-6-fluoronaphthalen-2-ol]
IC50 (KRAS^G12D/cRAF): 52.5 nM
IC50 (HPAC): 133 nM
IC50 (LS513): 163 nM

C#Cc1c(F)ccc2cc(O)cc(-c3ncc4c(N5C[C@@H]6CC[C@](CC)(C5)N6)nc(OC[C@@]56CCCN5C/C(=C\F)C6)nc4c3F)c12 [Example 55, 4-(4-((1R,5S)-1-ethyl-3,8-diazabicyclo[3.2.1]octan-3-yl)-8-fluoro-2-(((Z)-2-(fluoromethylene)tetrahydro-1H-pyrrolizin-7a (5H)-yl)methoxy)pyrido[4,3-d]pyrimidin-7-yl)-5-ethynyl-6-fl uoronaphthalen-2-ol]
IC50 (KRAS^G12D/cRAF): 3 nM
IC50 (AsPC-1): 16.3 nM
IC50 (AGS): 1.3 nM

C#Cc1c(F)ccc2cc(O)cc(-c3ncc4c(N5C[C@@H]6CC[C@](COC)(C5)N6)nc(OC[C@@]56CCCN5C/C(=C\F)C6)nc4c3F)c12 [Example 58, 5-ethynyl-6-fluoro-4-(8-fluoro-2-(((Z)-2-(fluoromethylene)tetrahydro-1H-pyrrolizin-7a(5H)-yl)methoxy)-4-((1R,5S)-1-(methoxymethyl)-3,8-diazabicyclo [3.2.1]octan-3-yl)pyrido[4,3-d]pyrimidin-7-yl)naphthalen-2-ol]
IC50 (KRAS^G12D/cRAF): 6 nM
IC50 (AsPC-1): 21.8 nM
IC50 (AGS; Homo sapiens, AGS, 96 h): 1.7 nM

[2H]C([2H])([2H])OC[C@@]12CC[C@@H](CN(c3nc(OC[C@@]45CCCN4C/C(=C\F)C5)nc4c(F)c(-c5cc(O)cc6ccc(F)c(C#C)c56)ncc34)C1)N2 [Example 61, 5-ethynyl-6-fluoro-4-(8-fluoro-2-(((Z)-2-(fluoromethylene)tetrahydro-1H-pyrrolizin-7a(5H)-yl)methoxy)-4-((1R,5S)-1-((methoxy-d3)methyl)-3,8-diazabicyclo[3.2.1]octan-3-yl)pyrido[4,3-d]pyrimidin-7-yl)naphthalen-2-ol]
IC50 (KRAS^G12D/cRAF): 2.5 nM
IC50 (AsPC-1): 37.9 nM
IC50 (AGS): 3.4 nM

C#Cc1c(F)ccc2cc(O)cc(-c3ncc4c(N5C[C@@H]6CC[C@](CC)(C5)N6)nc(OC[C@@]56CCCN5C/C(=C/F)C6)nc4c3F)c12 [Example 80, 4-(4-((1R,5S)-1-ethyl-3,8-diazabicyclo[3.2.1]octan-3-yl)-8-fluoro-2-(((S,E)-2-(fluoromethylene)tetrahydro-1H-pyrrolizin-7a (5H)-yl)methoxy)pyrido[4,3-d]pyrimidin-7-yl)-5-ethynyl-6-fluoronaphthalen-2-ol]
IC50 (KRAS^G12D/cRAF): 6.2 nM
IC50 (AsPC-1): 39.6 nM
IC50 (AGS; Homo sapiens, AGS, 96 h): 5.8 nM

[2H]C([2H])([2H])OC[C@@]12CC[C@@H](CN(c3nc(OC[C@@]45CCCN4C/C(=C/F)C5)nc4c(F)c(-c5cc(O)cc6ccc(F)c(C#C)c56)ncc34)C1)N2 [Example 84, 5-ethynyl-6-fluoro-4-(8-fluoro-2-(((S,E)-2-(fluoromethylene)tetrahydro-1H-pyrrolizin-7a (5H)-yl)methoxy)-4-((1R,5S)-1-((methoxy-d3)methyl)-3,8-diazabicyclo[3.2.1]octan-3-yl)pyrido[4,3-d]pyrimidin-7-yl) naphthalen-2-ol]
IC50 (KRAS^G12D/cRAF): 3.9 nM
IC50 (AsPC-1): 59.3 nM
IC50 (AGS; Homo sapiens, AGS, 96 h): 11.4 nM

C#Cc1c(F)ccc2cc(O)cc(-c3ncc4c(N5C[C@@H]6CC[C@](C7CC7)(C5)N6)nc(OC[C@@]56CCCN5C/C(=C/F)C6)nc4c3F)c12 [Example 90, 4-(4-((1S,5S)-1-cyclopropyl-3,8-diazabicyclo[3.2.1]octan-3-yl)-8-fluoro-2-(((S,E)-2-(fluoromethylene)tetrahydro-1H-pyrrolizin-7a(5H)-yl)methoxy)pyrido[4,3-d]pyrimidin-7-yl)-5-ethynyl-6-fluoronaphthalen-2-ol]
IC50 (KRAS^G12D/cRAF): 40.7 nM
IC50 (AsPC-1): 103 nM
IC50 (AGS; Homo sapiens, AGS, 96 h): 28.1 nM

[2H]C([2H])([2H])[C@@]12CC[C@@H](CN(c3nc(OC[C@@]45CCCN4C/C(=C\F)C5)nc4c(F)c(-c5cc(O)cc6ccc(F)c(C#C)c56)c(F)cc34)C1)N2 [Example 229, 4-(6,8-difluoro-2-(((S,Z)-2-(fluoro-methylene)tetrahydro-1H-pyrrolizin-7a(5H)-yl)methoxy)-4-((1R,5S)-1-(methyl-d3)-3,8-diazabicyclo[3.2.1]octan-3-yl)quinazolin-7-yl)-5-ethynyl-6-fluoro-naphthalen-2-ol]
IC50 (KRAS^G12D/cRAF): 20.6 nM
IC50 (HPAC): 87.5 nM
IC50 (LS513): 33.3 nM

[2H]C([2H])([2H])[C@@]12CC[C@@H](CN(c3nc(OC[C@@]45CCCN4C/C(=C\F)C5)nc4c(F)c(-c5cc(N)cc6ccc(F)c(C#C)c56)ncc34)C1)N2 [Example 355, 5-ethynyl-6-fluoro-4-(8-fluoro-2-(((S,Z)-2-(fluoromethylene)tetrahydro-1H-pyrrolizin-7a(5H)-yl)methoxy)-4-((1R,5S)-1-(methyl-d3)-3,8-diazabicyclo[3.2.1]octan-3-yl)pyrido[4,3-d]pyrimidin-7-yl)naphthalen-2-amine]
IC50 (KRAS^G12D/cRAF): 11 nM
IC50 (AsPC-1): 66.1 nM
IC50 (AGS; Homo sapiens, AGS, 96 h): 17.7 nM
AUC ([1]; iv, 2 mg/kg): 223 ng·h/mL
Cmax ([1]; iv, 2 mg/kg): 68.9 ng/mL
half-life ([1]; iv, 2 mg/kg): 7.2 h
AUC ([1]; po, 10 mg/kg): 466 ng·h/mL
Cmax ([1]; po, 10 mg/kg): 120 ng/mL
bioavailability ([1]; po, 10 mg/kg): 41.7%
half-life ([1]; po, 10 mg/kg): 9.1 h

[2H]C([2H])([2H])C([2H])([2H])[C@@]12CC[C@@H](CN(c3nc(OC[C@@]45CCCN4C/C(=C\F)C5)nc4c(F)c(-c5cccc6sc(N)c(C#N)c56)c(Cl)cc34)C1)N2 [Example 362, 2-amino-4-(6-chloro-4-((1R,5S)-1-(ethyl-d5)-3,8-diazabicyclo [3.2.1]octan-3-yl)-8-fluoro-2-(((S,Z)-2-(fluoromethylene)tetra-hydro-1H-pyrrolizin-7a(5H)-yl)methoxy)quinazolin-7-yl)benzo [b]thiophene-3-carbonitrile]
IC50 (KRAS^G12D/cRAF): 27.7 nM
IC50 (HPAC): 61.8 nM
IC50 (LS513): 65.7 nM
